# Results reported in article PMC5988656, “Phase I studies of AZD1208, a proviral integration Moloney virus kinase inhibitor in solid and haematological cancers” (British Journal of Cancer, 2018).
# Test: AML dose-escalation study: pharmacokinetics (plasma, urine)
# Type: in vivo, human
# Method: The schedules for collection of blood and urine samples for PK analyses in each cohort in both studies are described in Supplementary Table 1. When necessary for clinical response assessment in the AML study, a bone marrow sample for PK analysis was collected at Cycle 1, Day 28.
# The concentration of AZD1208 in plasma and urine was determined by Covance, on behalf of Clinical Bioanalysis Alliance at AstraZeneca R&D, using a bioanalytical method. A volume of 0.05 ml of K2EDTA human plasma sample was extracted by liquid–liquid extraction using 0.7 ml of methyl tert-butyl ether. Approximately 100 µl of the supernatant was transferred, evaporated to dryness and reconstituted with 350 µl of 1:1 methanol:water, and a 5 µl injection was made to the high-performance liquid chromatography (HPLC) column. HPLC separations were performed on a Phenomenex LUNA C18 (50 × 2 mm, 5 µm) column using a mobile phase of 0.1% formic acid in water (A) and 0.1% formic acid in acetonitrile (B) at a flow rate of 0.6 ml/min and a column temperature of 40 °C. AZD1208-D5 was used as the internal standard. Detection was performed in a Sciex API4000 mass spectrometer, in a positive electrospray ionisation mode, using multiple reaction monitoring detection (AZD1208: 380.0–>248.1; AZD1208-D5: 385.0–>253.1).
smiles,measurement,setting,value
N[C@@H]1CCCN(c2c(/C=C3\SC(=O)NC3=O)cccc2-c2ccccc2)C1 [AZD1208],Percentage of patients with a lower accumulation ratio,240 mg,0%
same,Percentage of patients with a lower accumulation ratio,900 mg,67%
same,Patients with significantly lower exposure at steady state compared with the first dose,"120–900 mg doses, 4/16 patients",25%
same,Dose proportionality of Cmax and AUC0–24,"Cycle 1, Day 1",dose proportional
same,"Tmax, median","Cycle 1, Day 1, 120 mg, n=3",2.42 h
same,"Tmax, median","Cycle 1, Day 1, 240 mg, n=6",2.20 h
same,"Tmax, median","Cycle 1, Day 1, 480 mg, n=6",3.17 h
same,"Tmax, median","Cycle 1, Day 1, 700 mg, n=7",3.05 h
same,"Tmax, median","Cycle 1, Day 1, 900 mg, n=9",3.20 h
same,Gmean plasma concentration of AZD1208 (± SD),"Cycle 1, Day 1, 0.5 h post-dose, 120 mg, n=3","85.8 (40.1, 183.9) ng ml"
same,Gmean plasma concentration of AZD1208 (± SD),"Cycle 1, Day 1, 0.5 h post-dose, 240 mg, n=6","158.3 (14.4, 1740.3) ng ml"
same,Gmean plasma concentration of AZD1208 (± SD),"Cycle 1, Day 1, 0.5 h post-dose, 480 mg, n=6","124.3 (67.6, 228.6) ng ml"
same,Gmean plasma concentration of AZD1208 (± SD),"Cycle 1, Day 1, 0.5 h post-dose, 700 mg, n=7","386.8 (93.3, 1603.6) ng ml"
same,Gmean plasma concentration of AZD1208 (± SD),"Cycle 1, Day 1, 0.5 h post-dose, 900 mg, n=9","251.5 (90.7, 697.2) ng ml"
same,Gmean plasma concentration of AZD1208 (± SD),"Cycle 1, Day 1, 1 h post-dose, 120 mg, n=3","321.3 (187.8, 549.9) ng ml"
same,Gmean plasma concentration of AZD1208 (± SD),"Cycle 1, Day 1, 1 h post-dose, 240 mg, n=6","540.4 (133.8, 2182.4) ng ml"
same,Gmean plasma concentration of AZD1208 (± SD),"Cycle 1, Day 1, 1 h post-dose, 480 mg, n=6","573.0 (248.3, 1322.0) ng ml"
same,Gmean plasma concentration of AZD1208 (± SD),"Cycle 1, Day 1, 1 h post-dose, 700 mg, n=7","883.8 (351.6, 2221.7) ng ml"
same,Gmean plasma concentration of AZD1208 (± SD),"Cycle 1, Day 1, 1 h post-dose, 900 mg, n=9","921.4 (373.1, 2275.6) ng ml"
same,Gmean plasma concentration of AZD1208 (± SD),"Cycle 1, Day 1, 1.5 h post-dose, 120 mg, n=3","774.5 (422.1, 1421.3) ng ml"
same,Gmean plasma concentration of AZD1208 (± SD),"Cycle 1, Day 1, 1.5 h post-dose, 240 mg, n=6","1098.6 (620.9, 1943.7) ng ml"
same,Gmean plasma concentration of AZD1208 (± SD),"Cycle 1, Day 1, 1.5 h post-dose, 480 mg, n=6","1243.2 (485.9, 3181.1) ng ml"
same,Gmean plasma concentration of AZD1208 (± SD),"Cycle 1, Day 1, 1.5 h post-dose, 700 mg, n=7","1849.6 (783.5, 4366.4) ng ml"
same,Gmean plasma concentration of AZD1208 (± SD),"Cycle 1, Day 1, 1.5 h post-dose, 900 mg, n=9","2106.0 (860.5, 5154.2) ng ml"
same,Gmean plasma concentration of AZD1208 (± SD),"Cycle 1, Day 1, 2 h post-dose, 120 mg, n=3","779.9 (508.9, 1195.3) ng ml"
same,Gmean plasma concentration of AZD1208 (± SD),"Cycle 1, Day 1, 2 h post-dose, 240 mg, n=6","1388.6 (1074.3, 1744.9) ng ml"
same,Gmean plasma concentration of AZD1208 (± SD),"Cycle 1, Day 1, 2 h post-dose, 480 mg, n=6","1852.3 (781.9, 4387.6) ng ml"
same,Gmean plasma concentration of AZD1208 (± SD),"Cycle 1, Day 1, 2 h post-dose, 700 mg, n=7","2640.6 (1438.6, 4847.0) ng ml"
same,Gmean plasma concentration of AZD1208 (± SD),"Cycle 1, Day 1, 2 h post-dose, 900 mg, n=9","3553.2 (2352.6, 5366.6) ng ml"
same,Gmean plasma concentration of AZD1208 (± SD),"Cycle 1, Day 1, 3 h post-dose, 120 mg, n=3","715.6 (415.5, 1232.6) ng ml"
same,Gmean plasma concentration of AZD1208 (± SD),"Cycle 1, Day 1, 3 h post-dose, 240 mg, n=6","1299.5 (967.1, 1746.2) ng ml"
same,Gmean plasma concentration of AZD1208 (± SD),"Cycle 1, Day 1, 3 h post-dose, 480 mg, n=6","2865.4 (1884.8, 4356.2) ng ml"
same,Gmean plasma concentration of AZD1208 (± SD),"Cycle 1, Day 1, 3 h post-dose, 700 mg, n=7","3112.3 (1814.6, 5337.9) ng ml"
same,Gmean plasma concentration of AZD1208 (± SD),"Cycle 1, Day 1, 3 h post-dose, 900 mg, n=9","3574.9 (1521.4, 8400.4) ng ml"
same,Gmean plasma concentration of AZD1208 (± SD),"Cycle 1, Day 1, 6 h post-dose, 120 mg, n=3","546.6 (356.7, 837.6) ng ml"
same,Gmean plasma concentration of AZD1208 (± SD),"Cycle 1, Day 1, 6 h post-dose, 240 mg, n=6","1004.2 (822.5, 1226.0) ng ml"
same,Gmean plasma concentration of AZD1208 (± SD),"Cycle 1, Day 1, 6 h post-dose, 480 mg, n=6","2642.0 (1774.2, 3934.4) ng ml"
same,Gmean plasma concentration of AZD1208 (± SD),"Cycle 1, Day 1, 6 h post-dose, 700 mg, n=7","2846.5 (2115.2, 3830.6) ng ml"
same,Gmean plasma concentration of AZD1208 (± SD),"Cycle 1, Day 1, 6 h post-dose, 900 mg, n=9","4252.0 (2883.8, 6269.4) ng ml"
same,Gmean plasma concentration of AZD1208 (± SD),"Cycle 1, Day 1, 8 h post-dose, 120 mg, n=3","481.6 (308.4, 752.3) ng ml"
same,Gmean plasma concentration of AZD1208 (± SD),"Cycle 1, Day 1, 8 h post-dose, 240 mg, n=6","950.3 (825.3, 1094.2) ng ml"
same,Gmean plasma concentration of AZD1208 (± SD),"Cycle 1, Day 1, 8 h post-dose, 480 mg, n=6","2249.0 (1520.2, 3327.1) ng ml"
same,Gmean plasma concentration of AZD1208 (± SD),"Cycle 1, Day 1, 8 h post-dose, 700 mg, n=7","3284.7 (2253.3, 4788.2) ng ml"
same,Gmean plasma concentration of AZD1208 (± SD),"Cycle 1, Day 1, 8 h post-dose, 900 mg, n=9","3882.9 (2438.1, 6184.0) ng ml"
same,Gmean plasma concentration of AZD1208 (± SD),"Cycle 1, Day 1, 24 h post-dose, 120 mg, n=3","199.0 (75.6, 524.0) ng ml"
same,Gmean plasma concentration of AZD1208 (± SD),"Cycle 1, Day 1, 24 h post-dose, 240 mg, n=6","844.5 (598.4, 1191.8) ng ml"
same,Gmean plasma concentration of AZD1208 (± SD),"Cycle 1, Day 1, 24 h post-dose, 480 mg, n=6","2169.6 (1161.6, 4052.3) ng ml"
same,Gmean plasma concentration of AZD1208 (± SD),"Cycle 1, Day 1, 24 h post-dose, 900 mg, n=9","3045.2 (1664.2, 5572.3) ng ml"
same,Gmean plasma concentration of AZD1208 (± SD),"Cycle 1, Day 1, pre-dose, 240 mg, n=6",76.9 (NC) ng ml
